# Data from patent US20110177156A1, “Sterol-Modified Amphiphilic Lipids” (priority 2007, published 2011).
# Where two headings read alike, the source gives them in different places.
# Columns and labels:
# phospholipase A2 (PLA2) [1] = molecular target: T1, phospholipase A2 (PLA2) (Bos taurus, UniProt P00593); test: Drug release by phospholipase A2 (bovine); type: biochemical; details: bovine PLA2, 37° C., pH 8.8, Triton X-100
# T1 construct: purchased Aldrich-Sigma
# From the text: All PLA2s were from Aldrich-Sigma. […] The flask was placed under high vacuum overnight.
# phospholipase A2 (PLA2) [2] = details: for release of all-trans retinoic acid from SML7a: pH 8.8, Triton X-100
# Experimental: Retinoic acid was used as the model drug for the investigation of enzyme triggered drug release. The release of all-trans retinoic acid from SML7a (1-cholesteryl-2-all-trans-retinoyl-sn-glycerophosphocholine) was evaluated with phospholipase A2 (PLA2) from a variety of sources including bovine, naja mossambica, and streptomyces vialaceoruber. All PLA2s were from Aldrich-Sigma. A chloroform solution of SML7a (50 μmol) in 50 mL round-bottom flask was evaporated by the rotavapor. The flask was placed under high vacuum overnight. The lipid film was hydrated in 10 mL pH 8.8 buffer containing 20 mM Triton X-100, 10 mM CaCl2, 10 mM HEPES, and 50 mM KCl. […] Aliquots of the solution (250 μL) were preincubated at 37° C. for 10 minutes, then used for the PLA2 assay. Aliquots of PLA2 solution (25 units in 250 μL pH 8.8 buffer of 10 mM HEPES, and 50 mM KCl) were preincubated at 37° C. for 10 minutes, and mixed with the aliquots of pre-warmed solution of SML7a. At different time point, the hydrolysis samples were analyzed by TLC, and quantified by densimeter.
# T1 sequence (P00593 23-145): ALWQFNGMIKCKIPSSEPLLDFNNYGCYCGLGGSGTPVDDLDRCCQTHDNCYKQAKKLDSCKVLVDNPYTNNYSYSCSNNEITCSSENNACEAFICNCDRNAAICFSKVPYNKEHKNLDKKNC
substance,measurement,setting,value
1-cholesteryl-2-all-trans-retinoyl-sn-glycerophosphocholine [SML7a],release of all-trans retinoic acid from SML7a,phospholipase A2 (PLA2) [1],completely release
same,release of all-trans retinoic acid from SML7a,"phospholipase A2 (PLA2) [2]; naja mossambica PLA2, 37° C.",completely release
same,relative activity of the PLA2 on SML7a,phospholipase A2 (PLA2) [2]; naja mossambica PLA2 compared with the two other PLA2,highest activity
same,release of all-trans retinoic acid from SML7a,"phospholipase A2 (PLA2) [2]; streptomyces vialaceoruber PLA2, 37° C.",completely release
